{
  "source": "patent US20070112026A1",
  "about": "“Carbostyril derivatives for accelerating salivation” (priority 2003, published 2007)",
  "key": {"non-anesthetized rats": {"tested_on": "non-anesthetized rats", "assay": "Salivation amount in non-anesthetized rats after intragastric administration (esophagus diverticulum collection)", "type": "in vivo", "settings": "saliva collected for 4 hours, average ± standard error", "procedure": "The effects of the present active compound by intragastric administration in non-anesthetized rats with respect to the salivation were studied as mentioned below. Using non-anesthetized rats, the saliva being swallowed for 4 hours on awaking into the diverticulum placed at the esophagus was collected and the salivation amount (g) was measured. Vehicle (0.5% sodium carboxymethyl cellulose solution) or Rebamipide 10, 30 or 100 mg/kg was intragastrically administered once when the esophagus diverticulum was set, and as a result, the average ± standard error of the salivation amount was 0.88±0.23 g (n=7) in the vehicle-treated group, 0.99±0.21 g (n=8) in the Rebamipide (10 mg/kg)-treated group, 1.37±0.26 g (n=7) in the Rebamipide (30 mg/kg)-treated group, and 1.72±0.40 g (n=8) in the Rebamipide (100 mg/kg)-treated group."}, "[1]": {"tested_on": "patients with Sjögren's syndrome", "assay": "Effects on xerostomia in patients with Sjögren's syndrome (subjective symptom scores, Saxon Test, overall evaluation)", "type": "in vivo, human", "settings": "for Salivation amount (Saxon test) / Total scores of subjective symptoms: 100 mg tablet orally three times per day, 21 patients; for Salivation amount (Saxon test): 1.29±1.00 g before administration; for Total scores of subjective symptoms: 9.6±4.1 before administration; for Overall evaluation: \"Effective\" / Overall evaluation: \"Non-effective\" / Overall evaluation: \"Remarkably effective\": of 21 patients", "procedure": "The effects of the present active compound on xerostomia in patients with Sjögren's syndrome was tested. The test was carried out for 21 patients (age: 27 to 85 years old, all female) who were diagnosed as surely having Sjögren's syndrome on the basis of Revised Diagnosis Standard for Sjögren's syndrome (issued by Ministry of Health, Labour and Welfare in Japan in 1999). Tablet containing 2-(4-chlorobenzoylamino)-3-(2-quinolon-4-yl)propionic acid (100 mg per tablet) was orally administered three times per day immediately after a meal (one tablet for each time) for 8 weeks. i) Evaluation by patients themselves as to subjective symptoms (e.g. feeling of dryness of the mouth, hydromania, pain in the mouth, taste disorder, difficulty in dietary intake, abnormality of saliva) before administration of tablet, after administration of tablet for 4 weeks and 8 weeks, respectively. […] Based on the salivation amount thus measured, the increasing rate of salivation was determined by the following equation: [formula] The effects of the test compound were evaluated based on both of the improvement of subjective symptoms and the salivation amount, which was classified in three degrees as follows. “Remarkably effective: Both of the improved rate of subjective symptoms and the increasing rate of salivation being more than 50%; “Effective”: Either of the improved rate of subjective symptoms or the increasing rate of salivation being more than 50%; “Non-effective”: Neither the improvement of subjective symptoms nor the increasing of salivation being observed. The experimental results were statistically evaluated in accordance with Wilcoxon's rank test."}, "[2]": {"tested_on": "patient suffering from mouth dryness accompanying Sjögren's syndrome", "assay": "Case of a patient suffering from mouth dryness accompanying Sjögren's syndrome (Saxon test)", "type": "in vivo, human", "settings": "for Subjective symptoms: 300 mg/day started May 29, 2003; for Salivation amount (Saxon test): 300 mg/day started May 29, 2003 (0.89 g at start), one patient", "text": "Effects of the present compound 2-(4-chlorobenzoyl-amino}-3-(2-quinolon-4-yl)propionic acid on a patient suffering from mouth dryness accompanying Sjögren's syndrome:\n(1) Patient: A person.\n(2) Chief Complaint: Cotton Mouth, Mattering of Eyes.\nThe symptoms of the mouth dryness were significant dry of toungue and significant lowering of salivaition (0.52 g in Saxon test). No swelling of parotid gland. Eye dryness was Silmer test (right 2 mm, left 1 mm), Rose bengal test (3+). No inflammation of the eye. Examination findings were ESR 17 mm/hr., WBC 5500/μL, RBC 484×10^4/μL, Hgb 13.4 g/dL, T.P. 8.4 g/dL, Alb 4.4 g/dL, AST 17 IU/mL, ALT 9 IU/mL, Amylase 140 IU/L, CK 46 IU/L, Cr 0.69 mg/dL, BUN 14.0 mg/dL, CRP<0.3 mg/dL, ANA 640 folds (speckled pattern), anti-SS-A antibody 126 times, Anti-SS-B antibody, negative, IgG 2270 mg/dL, IgA 368 mg/dL, IgM 132 mg/dL, and immune complex, Ciq solid-phase method, 3.3 (positive). (5) Clinical Course:\nAdministration of 2-(4-chloro-benzoylamino)-3-(2-quinolon-4-yl)propionic acid (300 mg/day)was started on May 29, 2003. […] 25, 2003 and then the subjective symptoms were improved. The salivation amount more increased to 1.86 g on Jul. 23, 2003 and then the subjective symptoms were also more improved."}, "anesthetized rats": {"tested_on": "anesthetized rats", "assay": "Salivation amount in anesthetized rats after intravenous administration", "type": "in vivo", "settings": "for Salivation amount: over 20 minutes, average ± standard error; for Salivation amount, comparison with the vehicle-treated group: vehicle = 100", "procedure": "The effects of the present active compound on salivation in anesthetized rats were studied as mentioned below. Models for studying salivation were prepared according to the method of Masunaga, et al. (Masunaga, H., et al., Long-lasting salivation induced by a novel Muscarinic receptor agonist SNI-201 in rats and dogs. Eur. J. Pharmacol., 339: 1-9, 1997). Namely, rats had been fasted from the day before the experiment except that the intake of water was freely allowed, and the rats were anesthetized with Nembutal (=pentobarbital sodium). The rats were put down on the back, and the neck was subjected to midline incision. An ATOM anionic fluid suction catheter of 6Fr. was inserted to the air tube in order to keep the airway clear. Next, a polyethylene tube (SP55 Natsume) containing a solution of 10 U/ml heparin in physiological saline was inserted into the […] for administration of a medicament. A 0.03 mg/ml or 0.1 mg/ml solution of the test compound (2-(4-Chlorobenzoylamino)-3-(2-quinolon-4-yl)-propionic acid; general name: Rebamipide) in 2% aqueous sodium hydrogen carbonate solution, and a vehicle (2% aqueous sodium hydrogen carbonate solution) as a control solution were used, and the test compound solution and the control solution in an amount of 1 mL/kg were respectively administered intravenously via the polyethylene tube inserted into the […]. Then, the salivation amount was measured every 10 minutes for 20 minutes with using cotton swabs, and the salivation amount per one minute was calculated from the total salivation amount for this period. In this measurement, the salivation amount was measured in such a way that the dried cotton swab (the weight thereof was previously measured) was inserted into the mouth of rat, and the swab was exchanged with a new dried one in every ten minutes, and the total salivation amount was calculated from the difference in the weight of the swab between before and after inserting into the mouth. The average salivation amount was calculated as measured in the vehicle-treated group (5 animals), the test compound (0.03 mg/kg)-treated group (5 animals) and the test compound (0.1 mg/kg)-treated group (4 animals), and the percentage of the average salivation amount in the test compound-treated groups against that of the vehicle-treated group was calculated."}, "[3]": {"tested_on": "patient with Sjögren's syndrome", "assay": "Patient record: earlier treatments of the same Sjögren's syndrome patient", "type": "in vivo, human", "settings": "earlier treatment of the patient of Experiment 4", "procedure": "Around February 1999, the patient visited a hospital in view of dryness of mouth and difficulty in tearing. Then, they were diagnosed to have Sjögren's syndrome in view of antinuclear antibody: 160 times, anti-SSR-A antibody: 126 times, Gum test: 8 ml, lowered function of salivary gland, ophthalmic Silmer test (right 4 mm, left 3 mm), dry kerato-conjunctivitis. […] Besides, Salivate spray was also applied but it was not effective and discontinued. After moving their home because of marriage, their hospital was change on May 1, 2003. Before the changing the hospital, an ophthalmic drop containing chondroitin sulfate has frequently been used for treating dry conjunctivitis."}},
  "data": [
    {"compound": "O=C(NC(Cc1cc(=O)[nH]c2ccccc12)C(=O)O)c1ccc(Cl)cc1", "note": "(centres unmarked) [Rebamipide, 2-(4-Chlorobenzoylamino)-3-(2-quinolon-4-yl)-propionic acid]", "values": [
      {"measurement": "Salivation amount", "setting": "non-anesthetized rats; 10 mg/kg intragastric once, n=8", "value": "0.99 ± 0.21", "unit": "g"},
      {"measurement": "Salivation amount", "setting": "non-anesthetized rats; 30 mg/kg intragastric once, n=7", "value": "1.37 ± 0.26", "unit": "g"},
      {"measurement": "Salivation amount", "setting": "non-anesthetized rats; 100 mg/kg intragastric once, n=8", "value": "1.72 ± 0.40", "unit": "g"},
      {"measurement": "Effectiveness", "setting": "[1]; after 4 weeks", "value": 52.4, "unit": "%"},
      {"measurement": "Salivation amount (Saxon test)", "setting": "[1]; after 4 weeks", "value": "1.95 ± 1.21", "unit": "g"},
      {"measurement": "Total scores of subjective symptoms", "setting": "[1]; after 4 weeks", "value": "6.6±3.2"},
      {"measurement": "Overall evaluation: \"Effective\"", "setting": "[1]; after 4 weeks", "value": 9, "unit": "patients"},
      {"measurement": "Overall evaluation: \"Non-effective\"", "setting": "[1]; after 4 weeks", "value": 10, "unit": "patients"},
      {"measurement": "Overall evaluation: \"Remarkably effective\"", "setting": "[1]; after 4 weeks", "value": 2, "unit": "patients"},
      {"measurement": "Effectiveness", "setting": "[1]; after 8 weeks", "value": 61.9, "unit": "%"},
      {"measurement": "Salivation amount (Saxon test)", "setting": "[1]; after 8 weeks", "value": "1.93 ± 1.14", "unit": "g"},
      {"measurement": "Total scores of subjective symptoms", "setting": "[1]; after 8 weeks", "value": "5.2±2.6"},
      {"measurement": "Overall evaluation: \"Effective\"", "setting": "[1]; after 8 weeks", "value": 7, "unit": "patients"},
      {"measurement": "Overall evaluation: \"Non-effective\"", "setting": "[1]; after 8 weeks", "value": 8, "unit": "patients"},
      {"measurement": "Overall evaluation: \"Remarkably effective\"", "setting": "[1]; after 8 weeks", "value": 6, "unit": "patients"},
      {"measurement": "Subjective symptoms", "setting": "[2]; Jul. 23, 2003", "value": "more improved"},
      {"measurement": "Salivation amount (Saxon test)", "setting": "[2]; Jul. 23, 2003", "value": 1.86, "unit": "g"},
      {"measurement": "Subjective symptoms", "setting": "[2]; Jun. 25, 2003", "value": "improved"},
      {"measurement": "Salivation amount (Saxon test)", "setting": "[2]; Jun. 25, 2003", "value": 1.55, "unit": "g"},
      {"measurement": "Salivation amount", "setting": "anesthetized rats; 0.03 mg/kg intravenous, n=5, listed as Test compound", "value": "0.262 ± 0.084", "unit": "mg/min"},
      {"measurement": "Salivation amount", "setting": "anesthetized rats; 0.03 mg/kg intravenous, n=5, listed as test compound", "value": "0.262 ± 0.084", "unit": "mg/min"},
      {"measurement": "Salivation amount, comparison with the vehicle-treated group", "setting": "anesthetized rats; 0.03 mg/kg intravenous", "value": 205, "unit": "%"},
      {"measurement": "Salivation amount", "setting": "anesthetized rats; 0.1 mg/kg intravenous, n=4, listed as Test compound", "value": "0.305 ± 0.097", "unit": "mg/min"},
      {"measurement": "Salivation amount", "setting": "anesthetized rats; 0.1 mg/kg intravenous, n=4, listed as test compound", "value": "0.305 ± 0.097", "unit": "mg/min"},
      {"measurement": "Salivation amount, comparison with the vehicle-treated group", "setting": "anesthetized rats; 0.1 mg/kg intravenous", "value": 239, "unit": "%"}
    ]},
    {"compound": "C[C@@H]1O[C@@]2(CS1)CN1CCC2CC1.Cl", "note": "[Sebimerine hydrochloride]", "values": [
      {"measurement": "Side effects leading to stop of administration", "setting": "[3]", "value": "abdominal discomfort and stomach ache"}
    ]}
  ]
}
